Source: ChEMBL document CHEMBL1130516, “Synthesis and biological activity of novel penem sulfoxides and sulfones” (Bioorg Med Chem Lett, 1997)

What was measured:
Staphylococcus [1] = assay: Inhibitory zone of compound at 30 ug against Staphylococcus 25768 was determined; assay type: functional
Escherichia coli [2] = assay: Inhibitory zone of compound at 30 ug against Escherichia coli TEM was determined; assay type: functional
Staphylococcus aureus = assay: Inhibitory zone of compound at 30 ug against Staphylococcus aureus 1104 was determined; assay type: functional
Pseudomonas aeruginosa = assay: Inhibitory zone of compound at 30 ug against Pseudomonas aeruginosa was determined; assay type: functional
[3] = Compound was evaluated for relative hydrolysis rate; assay type: ADME
Enterobacter cloacae = assay: Inhibitory zone of compound at 30 ug against Enterobacter cloacae was determined; assay type: functional
Escherichia coli [4] = assay: Inhibitory zone of compound at 30 ug against Escherichia coli 1103 was determined; assay type: functional
Enterococcus = assay: Inhibitory zone of compound at 30 ug against Enterococcus was determined; assay type: functional
[5] = Compound was evaluated for half life of hydrolysis in phosphate buffer at pH 7.4 and 37 degree C; assay type: ADME
Staphylococcus [6] = assay: Inhibitory zone of compound at 30 ug against Staphylococcus innsbruck was determined; assay type: functional
Beta-lactamase = Beta-lactamase (Enterobacter cloacae, UniProt P05364); assay: Compound was evaluated for beta-lactamase inhibition activity of Enterobacter cloacae after 15 min of pre-incubation with the enzyme at 37 degree C
Beta-lactamase TEM [7] = target: T1, Beta-lactamase TEM (Escherichia coli, UniProt P62593); assay: (§1) Compound was evaluated for beta-lactamase inhibition activity of Escherichia coli after 15 min of pre-incubation with the enzyme at 37 degree C
Beta-lactamase TEM [8] = target: T1, Beta-lactamase TEM; assay: as §1; parameters: species or system Escherichia cloacae

Beta-lactamase, sequence (P05364 whole entry): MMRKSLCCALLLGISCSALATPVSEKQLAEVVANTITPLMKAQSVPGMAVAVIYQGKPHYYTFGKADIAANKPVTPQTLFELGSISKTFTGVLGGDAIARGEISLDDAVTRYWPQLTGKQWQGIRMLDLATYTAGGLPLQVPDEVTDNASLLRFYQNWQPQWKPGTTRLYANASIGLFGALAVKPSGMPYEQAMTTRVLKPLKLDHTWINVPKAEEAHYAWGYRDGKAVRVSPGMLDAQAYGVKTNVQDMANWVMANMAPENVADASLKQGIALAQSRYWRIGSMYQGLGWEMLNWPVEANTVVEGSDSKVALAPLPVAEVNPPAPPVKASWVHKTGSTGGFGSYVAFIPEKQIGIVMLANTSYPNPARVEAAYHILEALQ
T1 sequence (P62593 whole entry): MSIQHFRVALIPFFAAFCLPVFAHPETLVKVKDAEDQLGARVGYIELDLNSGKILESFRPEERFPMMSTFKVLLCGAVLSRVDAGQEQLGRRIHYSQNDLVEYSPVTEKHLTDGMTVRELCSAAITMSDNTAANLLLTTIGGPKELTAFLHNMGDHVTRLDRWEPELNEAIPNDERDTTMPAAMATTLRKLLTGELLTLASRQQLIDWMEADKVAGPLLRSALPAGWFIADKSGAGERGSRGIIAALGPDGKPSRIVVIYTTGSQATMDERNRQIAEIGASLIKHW

CC(C)(C)C1=C(C(=O)[O-])N2C(=O)C[C@H]2[S+]1[O-].[K+] (some centres undefined)
Inhibition zone (Staphylococcus [1]): 8 mm | Inhibition zone (Escherichia coli [2]): 0 mm | Inhibition zone (Staphylococcus aureus): 36 mm | Inhibition zone (Pseudomonas aeruginosa): 0 mm | Krel [3]: 39 | Inhibition zone (Enterobacter cloacae): 0 mm | Inhibition zone (Escherichia coli [4]): 10 mm | Inhibition zone (Enterococcus): 0 mm | half-life [5]: 330 min | Inhibition zone (Staphylococcus [6]): 0 mm

C[C@@H](O)[C@H]1C(=O)N2C(C(=O)[O-])=C(C(C)(C)C)[S+]([O-])[C@H]12.[K+] (some centres undefined)
Inhibition zone (Staphylococcus [1]): 24 mm | Inhibition zone (Escherichia coli [2]): 13 mm | IC50 (Beta-lactamase): 300 nM | Inhibition zone (Staphylococcus aureus): 30 mm | Inhibition zone (Pseudomonas aeruginosa): 0 mm | Krel [3]: 33 | Inhibition zone (Enterobacter cloacae): 7 mm | IC50 (Beta-lactamase TEM [7]): 90 µM | Inhibition zone (Escherichia coli [4]): 20 mm | Inhibition zone (Enterococcus): 0 mm | half-life [5]: 390 min | Inhibition zone (Staphylococcus [6]): 0 mm

C[C@@H](O)[C@H]1C(=O)N2C(C(=O)[O-])=C(C(C)(C)C)S(=O)(=O)[C@H]12.[K+]
Inhibition zone (Staphylococcus [1]): 0 mm | Inhibition zone (Escherichia coli [2]): 0 mm | IC50 (Beta-lactamase): 4 nM | Inhibition zone (Staphylococcus aureus): 0 mm | Inhibition zone (Pseudomonas aeruginosa): 0 mm | Krel [3]: 720 | Inhibition zone (Enterobacter cloacae): 0 mm | IC50 (Beta-lactamase TEM [7]): 10 µM | Inhibition zone (Escherichia coli [4]): 0 mm | Inhibition zone (Enterococcus): 0 mm | half-life [5]: 1080 min | Inhibition zone (Staphylococcus [6]): 0 mm

C[C@@H](O)[C@H]1C(=O)N2C(C(=O)[O-])=C(C(C)(C)C)S[C@H]12.[K+]
Inhibition zone (Staphylococcus [1]): 31 mm | Inhibition zone (Escherichia coli [2]): 9 mm | IC50 (Beta-lactamase): 300 nM | Inhibition zone (Staphylococcus aureus): 36 mm | Inhibition zone (Pseudomonas aeruginosa): 0 mm | Krel [3]: 0.6 | Inhibition zone (Enterobacter cloacae): 10 mm | Inhibition zone (Escherichia coli [4]): 18 mm | Inhibition zone (Enterococcus): 11 mm | IC50 (Beta-lactamase TEM [8]): 50 µM | half-life [5]: 960 min | Inhibition zone (Staphylococcus [6]): 0 mm

CC(C)(C)C1=C(C(=O)[O-])N2C(=O)C[C@H]2S1.[K+]
Inhibition zone (Staphylococcus [1]): 0 mm | Inhibition zone (Escherichia coli [2]): 0 mm | Inhibition zone (Staphylococcus aureus): 40 mm | Inhibition zone (Pseudomonas aeruginosa): 0 mm | Krel [3]: 1 | Inhibition zone (Enterobacter cloacae): 0 mm | Inhibition zone (Escherichia coli [4]): 11 mm | Inhibition zone (Enterococcus): 0 mm | half-life [5]: 540 min | Inhibition zone (Staphylococcus [6]): 0 mm

N[C@@H](C(=O)N[C@@H]1C(=O)N2C(C(=O)O)=C(Cl)CS[C@H]12)c1ccccc1.O [CEFACLOR]
Inhibition zone (Staphylococcus [1]): 13 mm | Inhibition zone (Escherichia coli [2]): 15 mm | Inhibition zone (Staphylococcus aureus): 32 mm | Inhibition zone (Pseudomonas aeruginosa): 0 mm | Inhibition zone (Enterobacter cloacae): 7 mm | Inhibition zone (Escherichia coli [4]): 25 mm | Inhibition zone (Enterococcus): 15 mm | Inhibition zone (Staphylococcus [6]): 12 mm
